Tests used:
[1] = system: A375P F11s tumor cells; assay: Cell growth inhibition assay (CellTiter-Glo), A375P F11s; type: cell-based, Human; conditions: Homo sapiens
How it was run: (§1)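 Cells seeded at 500/well (HN5 and HT-29 in high-glucose DMEM/10% FBS; A375P F11s in RPMI/10% FBS with pyruvate; SK-MEL-3 in McCoy's 5A/15% FBS), then exposed next day to 1:3 serial compound dilutions (0.2% DMSO) for 3 days at 37° C. CellTiter-Glo luminescence measured ATP; IC50 derived by 4-parameter fit.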

[2] = system: SK-MEL-3 tumor cells; assay: Cell growth inhibition assay (CellTiter-Glo), SK-MEL-3; type: cell-based, Human; conditions: for IC50: Homo sapiens, SK-MEL3
How it was run: as §1

[3] = system: Colo205 tumor cells; assay: Cell growth inhibition assay (CellTiter-Glo), Colo205; type: cell-based, Human; conditions: 3 days incubation
How it was run: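 Cells plated at 500 cells/well in their growth media, dosed next day with nine-step 1:3 compound dilutions (final DMSO 0.2%), then incubated 3 days at 37° C, 5% CO2. Total ATP read by CellTiter-Glo luminescence as a surrogate for cell number; IC50 interpolated from 4-parameter fit versus DMSO controls.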

[4] = target: T1, ErbB2 (Homo sapiens, UniProt P04626); assay: ErbB-2 substrate phosphorylation assay (HTRF); type: biochemical
T1 construct: made in house; host or cells: baculovirus expression system
T1 sequence (P04626 23-1255): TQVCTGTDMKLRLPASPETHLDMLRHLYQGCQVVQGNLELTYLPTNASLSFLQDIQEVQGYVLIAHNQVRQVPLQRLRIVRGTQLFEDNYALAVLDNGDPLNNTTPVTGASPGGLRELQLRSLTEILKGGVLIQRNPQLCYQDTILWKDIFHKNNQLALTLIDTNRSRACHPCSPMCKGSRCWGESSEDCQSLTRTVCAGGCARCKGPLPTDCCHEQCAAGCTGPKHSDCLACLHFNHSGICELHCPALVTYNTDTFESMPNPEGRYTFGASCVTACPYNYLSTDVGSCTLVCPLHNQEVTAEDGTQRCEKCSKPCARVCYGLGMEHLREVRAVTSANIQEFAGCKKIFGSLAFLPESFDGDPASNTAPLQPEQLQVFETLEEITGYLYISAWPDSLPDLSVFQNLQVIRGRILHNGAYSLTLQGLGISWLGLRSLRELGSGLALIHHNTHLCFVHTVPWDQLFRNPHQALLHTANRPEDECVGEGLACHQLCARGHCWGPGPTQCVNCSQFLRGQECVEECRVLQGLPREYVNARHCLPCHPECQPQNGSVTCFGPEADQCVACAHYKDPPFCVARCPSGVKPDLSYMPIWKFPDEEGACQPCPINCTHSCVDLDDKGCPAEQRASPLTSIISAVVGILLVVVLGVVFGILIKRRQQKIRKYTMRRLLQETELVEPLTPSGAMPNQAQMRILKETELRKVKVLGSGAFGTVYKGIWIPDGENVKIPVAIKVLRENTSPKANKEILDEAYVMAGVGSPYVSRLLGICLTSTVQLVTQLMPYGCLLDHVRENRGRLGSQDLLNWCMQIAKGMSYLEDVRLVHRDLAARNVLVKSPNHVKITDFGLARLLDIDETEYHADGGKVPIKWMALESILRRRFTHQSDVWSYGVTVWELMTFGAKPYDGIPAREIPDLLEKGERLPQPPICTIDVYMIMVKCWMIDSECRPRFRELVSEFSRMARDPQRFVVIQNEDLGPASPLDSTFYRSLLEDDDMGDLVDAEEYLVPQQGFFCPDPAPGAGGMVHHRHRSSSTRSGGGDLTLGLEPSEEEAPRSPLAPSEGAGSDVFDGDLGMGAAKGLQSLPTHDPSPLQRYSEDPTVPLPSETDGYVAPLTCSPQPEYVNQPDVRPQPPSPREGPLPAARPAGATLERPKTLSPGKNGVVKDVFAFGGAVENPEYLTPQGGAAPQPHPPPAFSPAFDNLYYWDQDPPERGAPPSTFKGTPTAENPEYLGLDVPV
How it was run: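 Baculovirus-expressed EGFR (0.8 nM) or ErbB2 (10 nM) in enzyme mix, preincubated 1 h at 20 °C with compound (0.00027–47.6 μM final), then 90 min at 20 °C with substrate mix of 20 μM ATP, 0.8 uM biotinylated Peptide C, MnCl2, MOPS pH 7.5. Phosphotyrosine by HTRF; pIC50 reported.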

Compound	IC50 [1] [nM]	IC50 [2] [nM]	IC50 ([3]; Homo sapiens, COLO 205, 72 h) [nM]	IC50 [4] [nM]	Activity in SK-MEL-3 Tumor Cells [2]	IC50 [3] [nM]
CC(C)c1nc(-c2cc(F)c(F)c(NS(=O)(=O)c3cccc(F)c3)c2)c(-c2ccnc(Nc3cnc(N4CCOCC4)c(F)c3)n2)s1 [Example 31, N-{2,3-Difluoro-5-[5-(2-{[5-fluoro-6-(4-morpholinyl)-3-pyridinyl]amino}-4-pyrimidinyl)-2-(1-methylethyl)-1,3-thiazol-4-yl]phenyl}-3-fluorobenzenesulfonamide]	100 to 1000	100 to 1000	100 to 1000	> 1000	–	–
CC(C)c1nc(-c2ccnc(NS(=O)(=O)c3c(F)cccc3F)c2)c(-c2ccnc(Nc3ccc(N4CCOCC4)nc3)n2)s1 [Example 32, 2,6-Difluoro-N-{4-[2-(1-methylethyl)-5-(2-{[6-(4-morpholinyl}-3-pyridinyl]amino}-4-pyrimidinyl)-1,3-thiazol-4-yl]-2-pyridinyl}benzenesulfonamide]	< 100	< 100	< 100	> 1000	–	–
CC(C)c1nc(-c2ccnc(NS(=O)(=O)c3c(F)cccc3F)c2)c(-c2ccnc(Nc3cnc(N4CCOCC4)c(F)c3)n2)s1 [Example 33]	< 100	< 100	< 100	> 1000	–	–
CCc1nc(-c2cccc(CNS(=O)(=O)c3ccccc3)c2)c(-c2ccnc(Nc3ccc(N4CCOCC4)c(F)c3)n2)s1 [Example 34]	100 to 1000	–	100 to 1000	100 to 1000	+ (activity of >1 μM in SK-MEL-3 tumor cells)	–
CC(=O)N1CCN(c2ccc(Nc3nccc(-c4sc(C(C)C)nc4-c4cccc(NS(=O)(=O)c5cn(C)cn5)c4)n3)cn2)CC1 [Example 36]	100 to 1000	100 to 1000	100 to 1000	> 1000	–	–
CC(C)c1nc(-c2cccc(NS(=O)(=O)C3CCCCC3)c2)c(-c2ccnc(Nc3ccc(N4CCOCC4)c(F)c3)n2)s1 [Example 38]	100 to 1000	–	100 to 1000	100 to 1000	+ (activity of >1 μM in SK-MEL-3 tumor cells)	–
CC(=O)N1CCN(c2ccc(Nc3nccc(-c4sc(C(C)C)nc4-c4cccc(NS(=O)(=O)C5CCCCC5)c4)n3)cn2)CC1 [Example 39]	100 to 1000	100 to 1000	100 to 1000	> 1000	–	–
Cc1nc(Cl)sc1S(=O)(=O)Nc1cccc(-c2nc(C(C)C)sc2-c2ccnc(Nc3ccc(N4CCOCC4)nc3)n2)c1 [Example 42]	100 to 1000	< 100	< 100	> 1000	–	–
CC(C)c1nc(-c2cccc(NS(=O)(=O)c3c(F)cccc3F)n2)c(-c2ccnc(Nc3ccc(N4CCOCC4)nc3)n2)s1 [Example 44]	100 to 1000	100 to 1000	< 100	> 1000	–	–
COc1ccc(S(=O)(=O)Nc2cccc(-c3nc(C(C)C)sc3-c3ccnc(Nc4ccc(N5CCOCC5)nc4)n3)c2)cn1 [Example 49]	< 100	< 100	< 100	> 1000	–	–
CC(C)c1nc(-c2cccc(NS(=O)(=O)c3cccs3)c2)c(-c2ccnc(Nc3ccc(N4CCOCC4)nc3)n2)s1 [Example 51]	< 100	< 100	< 100	100 to 1000	–	–
CC(C)c1nc(-c2cccc(NS(=O)(=O)c3cccnc3)c2)c(-c2ccnc(Nc3ccc(N4CCOCC4)nc3)n2)s1 [Example 52]	< 100	< 100	< 100	100 to 1000	–	–
CC(C)c1nc(-c2cccc(NS(=O)(=O)c3ccco3)c2)c(-c2ccnc(Nc3ccc(N4CCOCC4)nc3)n2)s1 [Example 53]	< 100	< 100	< 100	> 1000	–	–
CC(=O)N1CCN(c2ccc(Nc3nccc(-c4oc(C(C)C)nc4-c4cccc(NS(=O)(=O)c5c(F)cccc5F)c4)n3)cn2)CC1 [Example 56]	100 to 1000	< 100	< 100	> 1000	–	–
CC(C)c1nc(-c2cccc(NS(=O)(=O)c3c(F)cccc3F)c2)c(-c2ccnc(Nc3ccc(N4CCOCC4)c(F)c3)n2)o1 [Example 57]	100 to 1000	100 to 1000	< 100	> 1000	–	–
Nc1nc(-c2cccc(NS(=O)(=O)c3c(F)cccc3F)c2)c(-c2ccnc(Nc3ccc(N4CCOCC4)nc3)n2)s1 [Example 62]	< 100	< 100	< 100	100 to 1000	–	–
CCNc1nc(-c2cccc(NS(=O)(=O)c3ccccc3)c2)c(-c2ccnc(Nc3ccc(OCCN4CCCC4)c(F)c3)n2)s1 [Example 65]	100 to 1000	100 to 1000	–	< 100	–	100 to 1000
CC(=O)N1CCN(c2ccc(Nc3nccc(-c4sc(C(C)C)nc4-c4cccc(NS(=O)(=O)c5cccc(C(F)(F)F)c5)c4)n3)cn2)CC1 [Example 70]	100 to 1000	100 to 1000	100 to 1000	> 1000	–	–
CC(C)c1nc(-c2ccc(F)c(NS(=O)(=O)c3c(F)cccc3F)c2)c(-c2ccnc(Nc3ccc(N4CCN5CCOC[C@H]5C4)nc3)n2)s1 [Example 97]	< 100	< 100	< 100	100 to 1000	–	–
CCOc1ccc(Nc2nccc(-c3sc(C(C)C)nc3-c3ccc(F)c(NS(=O)(=O)c4c(F)cccc4F)c3)n2)cc1N1CCN(CCF)CC1 [Example 98]	100 to 1000	100 to 1000	100 to 1000	< 100	–	–
CC(C)(C)c1nc(-c2ccc(F)c(NS(=O)(=O)c3c(F)cccc3F)c2)c(-c2ccnc(Nc3ccc(N4CCN(CCF)CC4)c(F)c3)n2)s1 [Example 99]	100 to 1000	100 to 1000	< 100	< 100	–	–
CC(C)c1nc(-c2ccnc(NS(=O)(=O)c3c(F)cccc3F)c2)c(-c2ccnc(Nc3ccc(N4CCN(CCF)CC4)c(F)c3)n2)s1 [Example 100]	< 100	< 100	< 100	> 1000	–	–
CC(C)c1nc(-c2cc(F)c(F)c(NS(=O)(=O)c3cccc(F)c3)c2)c(-c2ccnc(Nc3ccc(N4CCN(CCF)CC4)c(F)c3)n2)s1 [Example 101]	100 to 1000	100 to 1000	100 to 1000	100 to 1000	–	–
CC(C)c1nc(-c2ccc(F)c(NS(=O)(=O)c3c(F)cccc3F)c2)c(-c2ccnc(Nc3ccncc3)n2)s1 [Example 102]	100 to 1000	100 to 1000	100 to 1000	> 1000	–	–
CN1CCC(c2nc(-c3ccc(F)c(NS(=O)(=O)c4c(F)cccc4F)c3)c(-c3ccnc(Nc4ccc(N5CCOCC5)nc4)n3)s2)CC1 [Example 106]	< 100	< 100	100 to 1000	100 to 1000	–	–
CC(C)c1nc(-c2ccc(F)c(NS(=O)(=O)c3ccccc3C#N)c2)c(-c2ccnc(Nc3ccc(N4CCOCC4)nc3)n2)s1 [Example 107]	100 to 1000	100 to 1000	100 to 1000	100 to 1000	–	–
CCOc1ccc(Nc2nccc(-c3sc(N4CCCC4)nc3-c3cccc(NS(=O)(=O)c4c(F)cccc4F)c3)n2)cc1N1CCN(CCS(C)(=O)=O)CC1 [Example 109]	< 100	< 100	< 100	< 100	–	–
CN(C)c1nc(-c2ccc(F)c(NS(=O)(=O)c3c(F)cccc3F)c2)c(-c2ccnc(Nc3ccc(N4CCN(S(C)(=O)=O)CC4)nc3)n2)s1 [Example 112]	100 to 1000	100 to 1000	100 to 1000	100 to 1000	–	–
CC(C)c1nc(-c2ccc(F)c(NS(=O)(=O)c3c(F)cccc3F)c2)c(-c2ccnc(Nc3cccc(CCS(N)(=O)=O)c3)n2)s1 [Example 113]	100 to 1000	100 to 1000	100 to 1000	< 100	–	–

From patent US20110319392A1, “Thiazole Sulfonamide And Oxazole Sulfonamide Kinase Inhibitors” (priority 2009, published 2011)
